# Values of other authors in the CATMoS acute toxicity set (Mansouri et al. 2021).
# Experiment: rat acute oral toxicity
# Details: in vivo
row,SMILES,LD50
1,CCOc1cc(Cc2cnc(N)nc2N)cc(OCC)c1-n1cccc1,1420 mg/kg
2,ClCC1(CCl)COC1,600 mg/kg
3,FC(F)(F)c1cccc(OCC2CNC(=S)O2)c1 (configuration not stated),524 mg/kg
4,CC(C)(C)c1cc(CCC(=O)O)ccc1O,1000 mg/kg
5,CCOc1ccccc1N1CCN(CCC=Cc2ccc3[nH]c(=O)ccc3c2)CC1,500 mg/kg
6,CCSP(SCC)SCC,355 mg/kg
7,COC(=O)c1ccccc1N=NN(C)C,13 mg/kg
8,CCOP(=O)(OCC)Oc1ccc([N+](=O)[O-])cc1,1.8 mg/kg
9,CC(C)Nc1nc(NC(C)C)nc(N(C)C#N)n1,1700 mg/kg
10,C=CCC(CC=C)C(=O)O,570 mg/kg
11,CNC(=O)Oc1cc(C)ccc1C(C)C,500 mg/kg
12,CC(C)(N)CCCCCCCCCCOCCO,1850 mg/kg
13,CN(C)C(CSS(=O)(=O)O)CSS(=O)(=O)O,333 mg/kg
14,CC(C)(C)c1ccc(OP2OCC3(CO2)COP(Oc2ccc(C(C)(C)C)cc2C(C)(C)C)OC3)c(C(C)(C)C)c1 (configuration not stated),5580 mg/kg
15,Nc1ccc(S(=O)(=O)c2ccc(N)cc2)cc1,1000 mg/kg
16,O=C(O)Cc1csc(-c2ccc(Cl)cc2)n1,850 mg/kg
17,COc1ccc(C(=O)CCC(=O)O)c2c(C)c(C)oc12,2180 mg/kg
18,CCOc1ccc(NC(=O)CC(C)O)cc1 (configuration not stated),7000 mg/kg
19,CCNCC(O)c1cccc(O)c1 (configuration not stated),114 mg/kg

row,SMILES,LD50
1,CCCCC1OC(=O)c2ccccc21 (configuration not stated),2450 mg/kg
2,O=C(O)C(F)(F)C(F)(F)C(F)(F)C(F)(F)C(F)(F)C(F)(F)C(F)(F)C(F)F,821 mg/kg
3,CC(=O)C(C)(C)C,610 mg/kg
4,C1=CC(c2ccc(C3CC=CCC3)cc2)CCC1 (configuration not stated),17500 mg/kg
5,CSC(C)=NOC(=O)N(C)SN(C)C(=O)Oc1ccc(OC(=O)N(C)SN(C)C(=O)ON=C(C)SC)cc1,453 mg/kg
6,O=C(O)CCC(=O)Nc1ccc(NS(=O)(=O)c2ccc([N+](=O)[O-])cc2)cc1,1500 mg/kg
7,CCSN(C)C(=O)Oc1cccc2c1OC(C)(C)C2,25 mg/kg
8,COP(=S)(OC)SC,15 mg/kg
9,CC1(C)C(=O)N(Cl)C(=O)N1Cl,542 mg/kg
10,COC(=O)C=Cc1ccccc1,2610 mg/kg
11,O=[N+]([O-])c1cc([N+](=O)[O-])c2nc(C(F)(F)F)[nH]c2c1,11.5 mg/kg
12,CNC(=O)c1cnn(C(C)(C)C)c1C#N,392 mg/kg
13,Cc1ncc(CSSCc2cnc(C)c(O)c2C)c(C)c1O,2150 mg/kg
14,CC1Cc2cc3c(cc2C(c2ccc(N)cc2)=NN1)OCO3 (configuration not stated),350 mg/kg
15,CCOC(=O)NCCOc1ccc(Oc2ccccc2)cc1,16800 mg/kg
16,Clc1ccc(CCC(Cn2ccnc2)Sc2c(Cl)cccc2Cl)cc1 (configuration not stated),1720 mg/kg
17,CNC(C)Cc1ccccc1OC (configuration not stated),630 mg/kg
18,CC(C)c1cccc(C(C)C)c1O,500 mg/kg
19,CCC(C)OC(CBr)c1cccc(Cl)c1 (configuration not stated),250 mg/kg

row,SMILES,LD50
1,CN(N=O)c1ccncc1,200 mg/kg
2,c1cc2c(c(NC3=NCCN3)c1)CCC2,481 mg/kg
3,CCOP(=S)(OCC)SCn1nc(Br)ccc1=O,30 mg/kg
4,O=C(OCCN1CCCCC1)C(O)(c1ccccc1)c1ccccc1,1210 mg/kg
5,c1cn[nH]c1,1010 mg/kg
6,C=CC1OCC(C)O1 (configuration not stated),890 mg/kg
7,CC(C)c1ccnc2ccccc12,940 mg/kg
8,CCN(C)CCC(CC=C(C)C)(C(N)=O)c1cccc2ccccc12 (configuration not stated),71 mg/kg
9,CCO/N=C(\OC(=O)c1ccccc1)c1c(OC)ccc(Cl)c1OC,15000 mg/kg
10,CCOC(=O)CC(C)(C)C(Cl)C=C(Cl)Cl (configuration not stated),3170 mg/kg
11,CC(C)=CCCC(C)=CCCC(=CCCC(C)=CCO)CO,10900 mg/kg
12,COC1CC2CC1C1CC(C=O)CC21 (configuration not stated),2800 mg/kg
13,COc1ccc2c(c1)c(CC(=O)O)c(C)n2C(=O)c1ccc(Cl)cc1,21 mg/kg
14,CC[N+]1(CC)CCC(=C(c2ccccc2)c2ccccc2)C1C (configuration not stated),1090 mg/kg
15,COc1ccc(S(=O)(=O)Nc2nnc(C(C)(C)C)s2)cc1,1150 mg/kg
16,CNC(=O)Oc1cc(C)cc(C(C)C)c1,35 mg/kg
17,CCCCCCCCCCCCN=C([O-])C[N+](C)(C)Cc1ccccc1,100 mg/kg
18,CCOc1cc2c(cc1OCC)C1CC(=O)C(CCC#N)CN1CC2 (configuration not stated),780 mg/kg
19,CCC1C(C)=NN=C(c2ccc(OC)c(OC)c2)c2cc(OC)c(OC)cc21 (configuration not stated),825 mg/kg
